We go through 19 compounds from ChEMBL document CHEMBL4346739, “Design, synthesis, and evaluation of novel N-(4-phenoxybenzyl)aniline derivatives targeting acetylcholinesterase, β-amyloid aggregation and oxidative stress to treat Alzheimer's disease” (Bioorg Med Chem, 2019).

One data set concerns the target Cholinesterase (Homo sapiens, UniProt P06276). Description: Inhibition of human plasma BChE using butyrylthiocholine iodide as substrate preincubated for 10 mins followed by substrate addition and measured at 6 mins by Ellman's method.
The nature of data set [1]: Permeability of compound at 25 ug/ml at pH 7.4 incubated for 18 hrs by PAMPA-BBB assay. Background: In PAMPA a lipid-coated filter parts donor from acceptor wells.
Data set [2] deals with T1, Acetylcholinesterase (Homo sapiens, UniProt P22303). In words: Inhibition of human erythrocyte AChE using acetylthiocholine iodide as substrate preincubated for 10 mins followed by substrate addition and measured for 6 mins by Ellman's method. (In Ellman's method for cholinesterases, released thiocholine reacts with DTNB.)
A short description of data set [3]: Octanol/water partition co-efficient, log P of compound at pH 7.4 by shake-flask method. The data set is classed as physicochemical.
Data set [4] relates to Mus musculus. In words: Reversal of scopolamine-induced amnesic effect in albino mouse assessed as increase in transfer latency time of acquisition trial at 5 mg/kg, po administered once daily for 7 days followed by scopolamine challenge and subsequent training session for 5 mins by passive avoidance test. The data set is classed as functional, organism-based.
The test system of data set [5] is Mus musculus. Description: Cognitive enhancing effect in albino mouse assessed as reversal of scopolamine-induced reduction in spontaneous alteration score at 5 mg/kg, po administered once daily for 7 days followed by scopolamine challenge for 5 mins prior to test and measured on day 7 by Y-maze test. The data set is classed as functional, organism-based.
The subject of data set [6] is Mus musculus. Description: Reversal of scopolamine-induced amnesic effect in albino mouse assessed as increase in transfer latency time of retention trial at 5 mg/kg, po administered once daily for 7 days followed by scopolamine challenge and subsequent training session for 5 mins by passive avoidance test. The data set is classed as functional, organism-based.
Data set [7] has as its system Mus musculus. In words: In vivo antioxidant activity in albino mouse assessed as increase in scopolamine-induced catalase activity by measuring decrease in H2O2 level in brain at 2.5 to 10 mg/kg, po administered once daily for 7 days followed by scopolamine challenge. Format: functional, organism-based.
In data set [8] the test system is Mus musculus. In words: Reversal of scopolamine-induced amnesic effect in albino mouse assessed as increase in transfer latency time of acquisition trial at 2.5 to 10 mg/kg, po administered once daily for 7 days followed by scopolamine challenge and subsequent training session for 5 mins by passive avoidance test. Format: functional, organism-based.
For data set [9], the system named is Mus musculus. In words: Reversal of scopolamine-induced amnesic effect in albino mouse assessed as increase in transfer latency time of retention trial at 2.5 to 10 mg/kg, po administered once daily for 7 days followed by scopolamine challenge and subsequent training session for 5 mins by passive avoidance test. The data set is classed as functional, organism-based.

The target of data set [10] is T1, Acetylcholinesterase. In words: Competitive inhibition of human erythrocyte AChE at 10 nM to 10 uM using acetylthiocholine iodide as substrate preincubated for 10 mins followed by substrate addition and measured up to 6 mins by Lineweaver-Burk plot analysis.
A short description of data set [11]: Acute toxicity in Swiss albino mouse assessed as effect on sleep by OECD 423 guideline based method. The following applies: in vivo.
Data set [12] deals with Mus musculus. Description: Antialzheimer activity in albino mouse assessed as reversal of scopolamine-induced AChE level in brain at 2.5 to 10 mg/kg, po administered once daily for 7 days followed by scopolamine challenge using acetylthiocholine iodide as substrate by Ellman's method. The data set is classed as functional, organism-based.
Data set [13] in a line: Acute toxicity in Swiss albino mouse assessed as diarrhea by OECD 423 guideline based method. The conditions noted are these: in vivo.
Data set [14] addresses T1, Acetylcholinesterase. In words: Competitive inhibition of human erythrocyte AChE assessed as effect on substrate V max at 10 nM to 10 uM using acetylthiocholine iodide as substrate preincubated for 10 mins followed by substrate addition and measured up to 6 mins by Lineweaver-Burk plot analysis.
Data set [15] relates to Mus musculus. In words: In vivo antioxidant activity in albino mouse assessed as decrease in scopolamine-induced MDA level in brain at 2.5 to 10 mg/kg, po administered once daily for 7 days followed by scopolamine challenge by TBARS assay. The data set is classed as functional, organism-based.
For data set [16], the system named is Mus musculus. Description: Cognitive enhancing effect in albino mouse assessed as reversal of scopolamine-induced reduction in spontaneous alteration score at 2.5 to 10 mg/kg, po administered once daily for 7 days followed by scopolamine challenge for 5 mins prior to test and measured on day 7 by Y-maze test. Format: functional, organism-based.
For data set [17], the system named is Mus musculus. In words: In vivo antioxidant activity in albino mouse assessed as increase in scopolamine-induced SOD level in brain at 2.5 to 10 mg/kg, po administered once daily for 7 days followed by scopolamine challenge and measured for 2 mins at 30 secs interval. The data set is classed as functional, organism-based.
Data set [18] in a line: Acute toxicity in Swiss albino mouse assessed as salivation by OECD 423 guideline based method. The following applies: in vivo.
The target in data set [19] is T1, Acetylcholinesterase. Description: Inhibition of human erythrocyte AChE-induced amyloid beta (1 to 42) (unknown origin) aggregation incubated for 48 hrs by fluorescence based thioflavin T assay.
Data set [20] in a line: Acute toxicity in Swiss albino mouse assessed as convulsions by OECD 423 guideline based method. The conditions noted are these: in vivo.
The subject of data set [21] is Mus musculus. In words: Effect on total arm entries in scopolamine-induced spatial memory impairment in albino mouse model of amnesia at 2.5 to 10 mg/kg, po administered once daily for 7 days followed by scopolamine challenge for 5 mins prior to test and measured on day 7 by Y-maze test. The data set is classed as ADME, organism-based. The conditions noted are these: in vivo.

Data set [22] deals with T1, Acetylcholinesterase. In words: Competitive inhibition of human erythrocyte AChE assessed as […] in Km at 10 nM to 10 uM using acetylthiocholine iodide as substrate preincubated for 10 mins followed by substrate addition and measured up to 6 mins by Lineweaver-Burk plot analysis.
For data set [23], the target named is T1, Acetylcholinesterase. In words: Competitive inhibition of human erythrocyte AChE assessed as enzyme-inhibitor complex formation by measuring intersection points on both axes of 1/Vmax and 1/[S] at 10 nM to 10 uM using acetylthiocholine iodide as substrate preincubated for 10 mins followed by substrate addition and measured up to 6 mins by Lineweaver-Burk plot analysis.

Data set [24] has as its target T1, Acetylcholinesterase. In words: Competitive inhibition of human erythrocyte AChE assessed as enzyme-inhibitor complex formation by measuring 1/s at 10 nM to 10 uM using acetylthiocholine iodide as substrate preincubated for 10 mins followed by substrate addition and measured up to 6 mins by Lineweaver-Burk plot analysis.
Data set [25] is described as follows: Acute toxicity in Swiss albino mouse assessed as mortality by OECD 423 guideline based method. The following applies: in vivo.
Data set [26] in a line: Acute toxicity in Swiss albino mouse assessed as effect on feeding behavior by OECD 423 guideline based method. The following applies: in vivo.
A short description of data set [27]: Acute toxicity in Swiss albino mouse assessed as induction of tremors by OECD 423 guideline based method. The following applies: in vivo.

pIC50, pKi: −log10 of the molar value. Active and inactive are the calls of the source. The rule behind the calls is not given here.

Chain of Cholinesterase (P06276 whole entry): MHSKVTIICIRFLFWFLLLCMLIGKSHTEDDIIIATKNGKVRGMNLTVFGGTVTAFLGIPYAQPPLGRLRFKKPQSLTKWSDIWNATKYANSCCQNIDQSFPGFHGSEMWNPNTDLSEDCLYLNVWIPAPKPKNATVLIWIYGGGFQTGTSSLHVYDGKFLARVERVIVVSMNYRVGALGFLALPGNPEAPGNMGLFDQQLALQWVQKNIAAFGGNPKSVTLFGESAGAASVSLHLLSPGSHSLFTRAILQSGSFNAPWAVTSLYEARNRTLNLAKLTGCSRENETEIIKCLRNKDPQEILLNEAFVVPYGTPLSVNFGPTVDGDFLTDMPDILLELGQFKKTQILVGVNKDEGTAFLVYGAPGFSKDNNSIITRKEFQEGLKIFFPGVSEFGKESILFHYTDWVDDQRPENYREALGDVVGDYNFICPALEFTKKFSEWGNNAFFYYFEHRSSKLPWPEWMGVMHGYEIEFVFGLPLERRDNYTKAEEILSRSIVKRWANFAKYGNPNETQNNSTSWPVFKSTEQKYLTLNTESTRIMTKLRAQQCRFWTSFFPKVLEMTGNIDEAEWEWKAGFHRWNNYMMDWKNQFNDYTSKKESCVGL
T1 sequence (P22303 whole entry): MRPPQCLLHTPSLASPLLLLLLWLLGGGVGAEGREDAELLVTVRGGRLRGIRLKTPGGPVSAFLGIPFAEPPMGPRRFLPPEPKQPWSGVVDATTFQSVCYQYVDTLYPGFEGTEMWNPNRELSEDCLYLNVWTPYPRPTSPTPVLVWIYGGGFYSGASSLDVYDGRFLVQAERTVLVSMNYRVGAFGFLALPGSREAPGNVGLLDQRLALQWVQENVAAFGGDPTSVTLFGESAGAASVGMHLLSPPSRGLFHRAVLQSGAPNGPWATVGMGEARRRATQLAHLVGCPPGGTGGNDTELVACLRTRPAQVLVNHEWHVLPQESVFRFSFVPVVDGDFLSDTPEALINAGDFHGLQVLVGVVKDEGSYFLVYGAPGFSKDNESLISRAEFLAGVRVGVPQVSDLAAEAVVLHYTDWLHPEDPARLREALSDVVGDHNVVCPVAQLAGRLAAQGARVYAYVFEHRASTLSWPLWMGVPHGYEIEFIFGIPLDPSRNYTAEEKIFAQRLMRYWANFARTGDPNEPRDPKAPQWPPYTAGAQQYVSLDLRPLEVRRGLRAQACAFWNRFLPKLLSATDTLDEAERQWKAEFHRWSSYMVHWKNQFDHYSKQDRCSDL

As a reminder, the pIC50 is −log10 of the IC50, conventionally taken in molar units. A higher pIC50 goes with a small IC50. One may read the Papp as a coefficient for how fast a substance crosses the barrier. A higher Papp goes with ready permeation. By logD is commonly meant the decadic logarithm of the distribution of all forms, ionised or not, between an organic phase and buffer at a given pH. High values mean a more lipophilic compound, low ones a more hydrophilic compound. As to `Nc1cccc(Cl)c1Oc1ccc(CNc2ccc(Br)cc2)cc1`, the pIC50 against Cholinesterase and against Acetylcholinesterase [2] was less than 5.00 each time. Also, the Papp at 18 h, 25 ug/ml in data set [1] turned out to be 34.8 nm/s. Also, in data set [3], the log distribution coefficient (logD) amounted to 4.52.
With `Nc1cccc(Cl)c1Oc1ccc(CNc2ccc(Cl)cc2)cc1`, the pIC50 on Cholinesterase and against Acetylcholinesterase [2] was less than 5.00 throughout. Further, the apparent permeability (Papp) at 18 h, 25 ug/ml in data set [1] was found to be 34.2 nm/s. The logD in data set [3] was 4.65.
In the case of `Nc1cccc(Cl)c1Oc1ccc(CNc2ccccc2)cc1`, the pIC50 on Cholinesterase and on Acetylcholinesterase [2] was less than 5.00 each time. The same compound had a Papp at 18 h, 25 ug/ml in [1] of 62.6 nm/s. The logD in data set [3] was found to be 3.54.
In data set [1], `CN(C)CCCN1c2ccccc2Sc2ccc(Cl)cc21` [CHLORPROMAZINE] gave an apparent permeability coefficient (Papp) at 18 h, 25 ug/ml of 58 to 65 nm/s.
As for `COc1cc2c(cc1OC)C(=O)C(CC1CCN(Cc3ccccc3)CC1)C2` (configuration not stated), the result in the data set on Mus musculus [4], in the data set with Mus musculus [5] and in the data set with Mus musculus [6] was Active.
In turn, `CC(=O)[C@H]1CC[C@H]2[C@@H]3CCC4=CC(=O)CC[C@]4(C)[C@H]3CC[C@]12C` [PROGESTERONE] gave a Papp at 18 h, 25 ug/ml in data set [1] of 93 to 138 nm/s.
For the compound `Nc1cccc(Cl)c1Oc1ccc(CNc2cccc(Cl)c2)cc1`, the negative logarithm of the IC50 (pIC50) at Cholinesterase and against Acetylcholinesterase [2] was less than 5.00 in each case. In data set [1], this compound returned an apparent permeability coefficient (Papp) at 18 h, 25 ug/ml of 56.5 nm/s. In data set [3], the pH-dependent lipophilicity (logD) stood at 3.98.
`CCn1cc(C(=O)O)c(=O)c2cc(F)c(N3CCNC(C)C3)c(F)c21` (configuration not stated) [LOMEFLOXACIN] gave a Papp at 18 h, 25 ug/ml in data set [1] of 3.1 to 11 nm/s.
Consider `Nc1cccc(Cl)c1Oc1ccc(CNc2ccc(O)cc2)cc1`, for which the pIC50 on Cholinesterase was 5.03; on Acetylcholinesterase [2] it was 5.06. Also, the Papp at 18 h, 25 ug/ml in data set [1] was 68.7 nm/s. This compound also displayed a logD in [3] of 3.15.
For `Nc1cccc(Cl)c1Oc1ccc(CNc2cccc(Br)c2)cc1` the same measures were less than 5.00, less than 5.00, 35.6 nm/s and 4.05.
For `COc1ccc(NCc2ccc(Oc3c(N)cccc3Cl)cc2)cc1` the same measures were 5.00, 5.28, 56.8 nm/s and 3.33.
`COc1cc(NCc2ccc(Oc3c(N)cccc3Cl)cc2)cc(OC)c1`: the results for the pIC50 at Cholinesterase and against Acetylcholinesterase [2] were 5.19 and 5.54, respectively. This compound showed a Papp at 18 h, 25 ug/ml in [1] of 45.4 nm/s. This compound registered a logD in data set [3] of 3.56.
`Nc1cccc(Cl)c1Oc1ccc(CNc2cc(Cl)cc(Cl)c2)cc1`: the pIC50 against Cholinesterase and at Acetylcholinesterase [2] was less than 5.00 throughout. The compound further yielded a Papp at 18 h, 25 ug/ml in data set [1] of 15.6 nm/s. Also, the logD in [3] stood at 4.39.
For the compound `NCCc1ccc(O)c(O)c1` [DOPAMINE], in data set [1], the apparent permeability (Papp) at 18 h, 25 ug/ml is 1.8 to 2 nm/s.
Consider `COc1cccc(NCc2ccc(Oc3c(N)cccc3Cl)cc2)c1`, for which the values for the negative-log IC50 (pIC50) on Cholinesterase and against Acetylcholinesterase [2] were 5.08 and 5.25, respectively. The apparent permeability coefficient (Papp) at 18 h, 25 ug/ml in [1] worked out at 46.5 nm/s. This compound also registered a logD in data set [3] of 3.98.
For orientation: pKi means the Ki on a negative log10 scale, so that one unit is a factor of ten. High values mean a low Ki, low ones a high Ki. Consider `COc1cc(NCc2ccc(Oc3c(N)cccc3Cl)cc2)cc(OC)c1OC`, for which the outcome with Mus musculus [7], in the data set on Mus musculus [8], in the data set on Mus musculus [5], with Mus musculus [15], in the data set on Mus musculus [16] and in the data set with Mus musculus [17] was Active. Besides, the Activity entry was “Dose-dependent effect” with Mus musculus [9]; “Non-Toxic” in [11]; “Dose-dependent effect” with Mus musculus [12]; “Non-Toxic” in [13]; “Non-Toxic” in data set [18]; “Non-Toxic” in data set [20]. The Activity entry (in the data set on Mus musculus [21]; in data set [25]; in data set [26]; in data set [27]) was “Non-Toxic” throughout. The compound further gave a pKi at Acetylcholinesterase [10] of 6.06. Also, the inhibition entry on Acetylcholinesterase [14] and at Acetylcholinesterase [22] was “Active” each time. On Acetylcholinesterase [19], the inhibition result is “Dose-dependent effect”. The pIC50 was 5.08 against Cholinesterase and 5.88 on Acetylcholinesterase [2]. For the same compound, the Papp at 18 h, 25 ug/ml in [1] came out at 63.5 nm/s. Further, the Ratio on Acetylcholinesterase [23] was greater than 0. Besides, at Acetylcholinesterase [24], the fold change (FC) is greater than 0. This compound yielded a pH-dependent lipophilicity (logD) in [3] of 3.78.
Consider `Nc1cccc(Cl)c1Oc1ccc(CNc2cccc(O)c2)cc1`, for which the values for the negative-log IC50 (pIC50) on Cholinesterase and at Acetylcholinesterase [2] were 5.02 and 5.14, respectively. This compound showed an apparent permeability (Papp) at 18 h, 25 ug/ml in data set [1] of 55.5 nm/s. The same compound showed a logD in [3] of 3.01.
In data set [1], `Cc1nnc2n1-c1ccc(Cl)cc1C(c1ccccc1)=NC2` [ALPRAZOLAM] had an apparent permeability (Papp) at 18 h, 25 ug/ml of 42 to 54 nm/s.
With `Nc1cccc(Cl)c1Oc1ccc(CNc2cc(Br)cc(Br)c2)cc1`, the negative-log IC50 (pIC50) against Cholinesterase and against Acetylcholinesterase [2] was less than 5.00 in each case. In [1], this compound registered a Papp at 18 h, 25 ug/ml of 14.5 nm/s. For the same compound, the logD in [3] turned out to be 4.52.
